Reference: patent publication EP4567035A1, “NOVEL COMPOUND AS HYPOXIA-INDUCIBLE FACTOR 1(HIF-1) INHIBITOR OR VASCULAR ENDOTHELIAL GROWTH FACTOR (VEGF) INHIBITOR, AND PHARMACEUTICAL COMPOSITION COMPRISING SAME” (Nextgen Bioscience Co., Ltd., priority 2022, dated 2024)
Read-outs that look alike come from different tables or passages of the source.

Key:
HIF-1α = target: T1, HIF-1α (Homo sapiens, UniProt Q16665); assay: Analysis of HIF-1α protein expression (Western blot) in ARPE-19 cells under mixed hypoxic condition; assay type: cell-based; settings: concentration range at which HIF-1α expression is reduced by 50% vs untreated control
T1 construct: endogenous in cells; host or cells: ARPE-19 (ATCC CRL-2302)
Method in brief: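 ARPE-19 cells were pretreated 16 h or 2 h with compound (0.1 nM–10 µM, serum-free DMEM/F12), then held 1 h or 24 h in mixed hypoxia (1% O2 plus CoCl2). HIF-1α was quantified by Western blot against β-actin; the concentration range giving ≥50% reduction vs untreated control was reported.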

VEGF = assay: Evaluation of VEGF protein secretion level (Human VEGF ELISA) in ARPE-19 cell medium under hypoxic conditions; assay type: cell-based
Method: ARPE-19 cells (Human retinal pigment epithelial cells, ATCC CRL-2302) were cultured in DMEM/F12 (LM002-08, Welgene) medium containing 10% fetal bovine serum (FBS, 16000-044, Gibco) in an incubator at 37°C with 5% carbon dioxide. When the cells grew sufficiently, they were cultured in experimental culture dishes for protein isolation and medium supernatant acquisition.
Cells were detached from the culture dish using TrypLE™ Express (Gibco). After centrifugation at 1000 rpm for 3 minutes, the supernatant was removed. The cells were counted and seeded into new culture dishes. Normoxic conditions were maintained by culturing the cells in a 37°C incubator with 5% carbon dioxide, and hypoxic conditions were maintained by culturing the cells in a hypoxic incubator with 1% oxygen, 5% carbon dioxide, and 94% nitrogen gas.
The expression of the downstream gene, angiogenesis inducer VEGF, is regulated by HIF-1α, a major transcription factor under hypoxic conditions, and the level of secreted VEGF protein can be quantitatively confirmed through ELISA (Enzyme Linked Immunosorbent Assay, Human VEGF Quantikine ELISA Kit, R&D systems). For this purpose, the following experiment was conducted.
The compounds of each Example were diluted to 0.1 nM, 1 nM, 3 nM, 10 nM, 30 nM, 100 nM, 300 nM, 1 µM and 10 µM in DMEM/F12 medium containing 1% fetal bovine serum, pretreated for 2 hours, and cultured for 24 hours under hypoxic conditions to obtain the cell medium supernatant. The supernatant was centrifuged at 1000 rpm for 3 minutes, and a specific amount was treated with a VEGF ELISA assay kit and the absorbance value was measured at 450 nm to quantitatively confirm the level of VEGF protein (see Table 1 below).
Based on the results of secreted VEGF protein expression levels in cell media treated with compounds diluted at concentrations ranging from 10 µM to 0.1 nM, the concentration range of the compound at which the secreted VEGF protein level was reduced by 50% or less compared to the untreated control group was derived.

[1] = values marked * in the table, mixed hypoxic condition (1% oxygen + CoCl2) for 24 hours, read-out: IC50 HIF-1α, Hypoxia(24h)
[2] = ARPE-19 cells, pretreated 2 hours, 24 hours hypoxic conditions, secreted VEGF in medium supernatant by ELISA, concentration range reducing VEGF by 50% vs untreated control, read-out: IC50 VEGF
[3] = ARPE-19 cells, pretreated 2 hours, 24 hours hypoxic conditions, ELISA, read-out: concentration at which the secreted VEGF protein level was suppressed to less than 50%
[4] = Experimental Example 2 (HIF-1α Western blot), read-out: concentration at which the expression level of VEGF was suppressed to less than 50%
[5] = mixed hypoxic condition (1% oxygen + CoCl2) for 1 hour, read-out: IC50 HIF-1α Hypoxia (1 hour)

T1 sequence (Q16665 whole entry): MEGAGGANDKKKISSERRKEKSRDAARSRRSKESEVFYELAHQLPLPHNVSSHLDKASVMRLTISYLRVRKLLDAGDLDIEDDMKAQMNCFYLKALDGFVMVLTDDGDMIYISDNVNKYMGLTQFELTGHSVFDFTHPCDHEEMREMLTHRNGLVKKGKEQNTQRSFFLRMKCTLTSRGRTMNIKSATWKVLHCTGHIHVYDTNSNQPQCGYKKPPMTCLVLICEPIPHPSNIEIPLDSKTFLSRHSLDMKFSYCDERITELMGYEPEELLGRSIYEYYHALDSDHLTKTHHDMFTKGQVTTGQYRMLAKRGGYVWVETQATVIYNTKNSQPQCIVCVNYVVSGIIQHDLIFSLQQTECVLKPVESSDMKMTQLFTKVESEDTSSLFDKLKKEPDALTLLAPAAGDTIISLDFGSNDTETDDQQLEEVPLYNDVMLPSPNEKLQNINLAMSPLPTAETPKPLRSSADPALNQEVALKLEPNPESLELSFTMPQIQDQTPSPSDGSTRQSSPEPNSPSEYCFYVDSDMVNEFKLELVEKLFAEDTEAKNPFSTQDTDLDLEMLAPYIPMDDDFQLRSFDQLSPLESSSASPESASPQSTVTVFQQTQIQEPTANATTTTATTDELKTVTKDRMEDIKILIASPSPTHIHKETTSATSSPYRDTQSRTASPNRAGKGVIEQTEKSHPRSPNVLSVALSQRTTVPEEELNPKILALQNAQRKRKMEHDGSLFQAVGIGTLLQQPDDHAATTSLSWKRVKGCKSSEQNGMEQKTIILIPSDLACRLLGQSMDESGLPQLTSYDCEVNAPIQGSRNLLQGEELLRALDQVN

| SMILES | DC50 (HIF-1α; [1]) | IC50 (VEGF; [2]) | IC50 (VEGF; [3]) | IC50 (VEGF; [4]) | DC50 (HIF-1α; [5]) |
| --- | --- | --- | --- | --- | --- |
| CN1CCC[C@@H]1c1nc2ncnc(C(=O)NCc3cc(F)cc(-c4cnn(C)c4)c3)c2[nH]1 [Example 66, (R)-N-(3-fluoro-5-(1-methyl-1H-pyrazol-4-yl)benzyl)-8-(1-methylpyrrolidin-2-yl)-7H-purine-6-carboxamide] | – | 1000 to 10000 nM | – | – | < 100 nM |
| Cn1ccc(Nc2cc(F)cc(CNC(=O)c3ncnc4nc(C5CCCC5)[nH]c34)c2)c1 [Example 142, 8-Cyclopentyl-N-(3-fluoro-5-((1-methyl-1H-pyrrol-3-yl)amino)benzyl)-7H-purine-6-carboxamide] | 100 to 1000 nM | > 10000 nM | – | – | – |
| O=C(NCc1cc(F)cc(-c2cnn(-c3ccc(F)cc3)c2)c1)c1ncnc2nc(C34CC(F)(C3)C4)[nH]c12 [Example 101, N-(3-fluoro-5-(1-(4-fluorophenyl)-1H-pyrazol-4-yl)benzyl)-8-(3-fluorobicyclo[1.1.1]pentan-1-yl)-7H-purine-6-carboxamide] | 100 to 1000 nM | 1000 to 10000 nM | – | – | – |
| O=C(NCc1cc(F)cc(-c2cnn(-c3ccc(F)cc3)c2)c1)c1ccnc2nc(C3CCCC3)[nH]c12 [Example 107, 2-Cyclopentyl-N-(3-fluoro-5-(1-(4-fluorophenyl)-1H-pyrazol-4-yl)benzyl)-1H-imidazo [4,5-b] pyridine-7-carboxamide] | > 10000 nM | > 10000 nM | – | – | – |
| Cc1nn(-c2ccc(F)cc2)cc1-c1cc(F)cc(CNC(=O)c2ncnc3nc(C4CCCC4)[nH]c23)c1 [Example 146, 8-Cyclopentyl-N-(3-fluoro-5-(1-(4-fluorophenyl)-3-methyl-1H-pyrazol-4-yl)benzyl)-7H-purine-6-carboxamide] | 100 to 1000 nM | 100 to 1000 nM | – | – | – |
| CS(=O)(=O)c1ccc(Cn2cc(-c3cc(F)cc(CNC(=O)c4ncnc5nc(C6CCCC6)[nH]c45)c3)cn2)cc1 [Example 24, 8-Cyclopentyl-N-(3-fluoro-5-(1-(4-(methylsulfonyl)benzyl)-1H-pyrazol-4-yl)benzyl)-7H-purine-6-carboxamide] | – | 100 to 1000 nM | – | – | < 100 nM |
| O=C(NCc1cc(F)cc(-c2cnn(-c3ccc(C(F)(F)F)cc3)c2)c1)c1ncnc2nc(C3CCCC3)[nH]c12 [Example 26, 8-Cyclopentyl-N-(3-fluoro-5-(1-(4-(trifluoromethyl)phenyl)-1H-pyrazol-4-yl)benzyl)-7H-purine-6-carboxamide] | – | 100 to 1000 nM | – | – | < 100 nM |
| O=C(NCc1cc(F)cc(N2CCCN(c3ccc(F)cc3)CC2)c1)c1ncnc2nc(C3CCCC3)[nH]c12 [Example 137, 8-Cyclopentyl-N-(3-fluoro-5-(4-(4-fluorophenyl)-1,4-diazepan-1-yl)benzyl)-7H-purine-6-carboxamide] | 100 to 1000 nM | > 10000 nM | – | – | – |
| O=C(NCc1cc(F)cc(-c2cnn(-c3cnn(Cc4ccccc4)c3)c2)c1)c1ncnc2nc(C3CCCC3)[nH]c12 [Example 125, N-(3-(1'-benzyl-1'H-[1,4'-bipyrazol]-4-yl)-5-fluorobenzyl)-8-cyclopentyl-7H-purine-6-carboxamide] | < 100 nM | 100 to 1000 nM | – | – | – |
| CN(Cc1cc(F)cc(-c2cnn(-c3ccc(F)cc3)c2)c1)C(=O)c1ncnc2nc(C3CCCC3)[nH]c12 [Example 112, 8-Cyclopentyl-N-(3-fluoro-5-(1-(4-fluorophenyl)-1H-pyrazol-4-yl)benzyl)-N-methyl-7H-purine-6-carboxamide] | > 10000 nM | > 10000 nM | – | – | – |
| O=C(NCc1cc(F)cc(-c2cnn(-c3ccc(F)cc3)c2)c1)c1ncnc2nc(C3CC(C(=O)O)C3)[nH]c12 (centres unmarked) [Example 106, 3-(6-((3-Fluoro-5-(1-(4-fluorophenyl)-1H-pyrazol-4-yl)benzyl)carbamoyl)-7H-purin-8-yl)cyclobutanecarboxylic acid] | > 10000 nM | > 10000 nM | – | – | – |

Continued, values first:

| DC50 (HIF-1α; [1]) | IC50 (VEGF; [2]) | IC50 (VEGF; [3]) | IC50 (VEGF; [4]) | DC50 (HIF-1α; [5]) | SMILES |
| --- | --- | --- | --- | --- | --- |
| < 100 nM | 100 to 1000 nM | – | – | – | O=C(NCc1cc(-c2cnn(-c3ccc(F)cc3)c2)ccc1F)c1ncnc2nc(C3CCCC3)[nH]c12 [Example 56, 8-Cyclopentyl-N-(2-fluoro-5-(1-(4-fluorophenyl)-1H-pyrazol-4-yl)benzyl)-7H-purine-6-carboxamide] |
| 100 to 1000 nM | 100 to 1000 nM | – | – | – | Cc1c(-c2cc(F)cc(CNC(=O)c3ncnc4nc(C5CCCC5)[nH]c34)c2)cnn1-c1ccc(F)cc1 [Example 147, 8-Cyclopentyl-N-(3-fluoro-5-(1-(4-fluorophenyl)-5-methyl-1H-pyrazol-4-yl)benzyl)-7H-purine-6-carboxamide] |
| < 100 nM | < 100 nM | < 100 nM | < 100 nM | – | O=C(NCc1cc(F)cc(-c2cnn(-c3cccnc3)c2)c1)c1ncnc2nc(C3CCC(F)(F)C3)[nH]c12 (centres unmarked) [Example 83, 8-(3,3-Difluorocyclopentyl)-N-(3-fluoro-5-(1-(pyridin-3-yl)-1H-pyrazol-4-yl)benzyl)-7H-purine-6-carboxamide] |
| < 100 nM | 100 to 1000 nM | – | – | – | [2H]C([2H])([2H])n1cc(Nc2cc(F)cc(CNC(=O)c3ncnc4nc(C5CCC(F)(F)C5)[nH]c34)c2)cn1 (centres unmarked) [Example 152, 8-(3,3-Difluorocyclopentyl)-N-(3-fluoro-5-((1-(methyl-d3)-1H-pyrazol-4-yl)amino)benzyl)-7H-purine-6-carboxamide] |
| – | < 100 nM | < 100 nM | < 100 nM | < 100 nM | O=C(NCc1cc(F)cc(-c2cnn(-c3cccnc3)c2)c1)c1ncnc2nc(C3CCCC3)[nH]c12 [Example 31, 8-Cyclopentyl-N-(3-fluoro-5-(1-(pyridin-3-yl)-1H-pyrazol-4-yl)benzyl)-7H-purine-6-carboxamide] |
| – | 100 to 1000 nM | – | – | < 100 nM | COc1ccc(-n2cc(-c3cc(F)cc(CNC(=O)c4ncnc5nc(C6CCCC6)[nH]c45)c3)cn2)cn1 [Example 43, 8-Cyclopentyl-N-(3-fluoro-5-(1-(6-methoxypyridin-3-yl)-1H-pyrazol-4-yl)benzyl)-7H-purine-6-carboxamide] |
| – | 100 to 1000 nM | – | – | < 100 nM | O=C(NCc1cc(F)cc(-c2ccn(-c3ccc(F)cc3)c2)c1)c1ncnc2nc(C3CCCC3)[nH]c12 [Example 52, 8-Cyclopentyl-N-(3-fluoro-5-(1-(4-fluorophenyl)-1H-pyrrol-3-yl)benzyl)-7H-purine-6-carboxamide] |
| – | 100 to 1000 nM | – | – | < 100 nM | O=C(NCc1cc(F)cc(Nc2cccnc2)c1)c1ncnc2nc(C3CCCC3)[nH]c12 [Example 10, 8-Cyclopentyl-N-(3-fluoro-5-(pyridin-3-ylamino)benzyl)-7H-purine-6-carboxamide] |
| – | 100 to 1000 nM | – | – | < 100 nM | O=C(O)c1ccc(-n2cc(-c3cc(F)cc(CNC(=O)c4ncnc5nc(C6CCCC6)[nH]c45)c3)cn2)cc1 [Example 54, 4-(4-(3-((8-Cyclopentyl-7H-purine-6-carboxamido)methyl)-5-fluorophenyl)-1H-pyrazol-1-yl)benzoic acid] |
| – | 100 to 1000 nM | – | – | < 100 nM | COc1cccc(Nc2cc(F)cc(CNC(=O)c3ncnc4nc(C5CCCC5)[nH]c34)c2)c1 [Example 34, 8-Cyclopentyl-N-(3-fluoro-5-((3-methoxyphenyl)amino)benzyl)-7H-purine-6-carboxamide] |
| – | 100 to 1000 nM | – | – | < 100 nM | N#Cc1cccc(-n2cc(-c3cc(F)cc(CNC(=O)c4ncnc5nc(C6CCCC6)[nH]c45)c3)cn2)c1 [Example 23, N-(3-(1-(3-Cyanophenyl)-1H-pyrazol-4-yl)-5-fluorobenzyl)-8-cyclopentyl-7H-purine-6-carboxamide] |
| < 100 nM | < 100 nM | < 100 nM | < 100 nM | – | O=C(NCc1cc(F)cc(-c2cnn(-c3ccc(F)nc3)c2)c1)c1ncnc2nc(C3CCCC3)[nH]c12 [Example 47, 8-Cyclopentyl-N-(3-fluoro-5-(1-(6-fluoropyridin-3-yl)-1H-pyrazol-4-yl)benzyl)-7H-purine-6-carboxamide] |
| < 100 nM | < 100 nM | < 100 nM | < 100 nM | – | Cc1cc(-n2cc(-c3cc(F)cc(CNC(=O)c4ncnc5nc(C6CCCC6)[nH]c45)c3)cn2)ccn1 [Example 42, 8-Cyclopentyl-N-(3-fluoro-5-(1-(2-methylpyridin-4-yl)-1H-pyrazol-4-yl)benzyl)-7H-purine-6-carboxamide] |
